Results: patent US20130280755A1, “THERAPEUTIC METHODS FOR SOLID DELIVERY” (Fred Hutchinson Cancer Research Center, priority 2010, published 2013)

What was measured:
[1] = test system: lymphoma tumor; assay: Doxorubicin delivered to a lymphoma tumor with a needle array; excised tumor slices imaged by fluorescence and brightfield microscopy; type: in vivo
Excerpt: Doxorubicin was delivered to a lymphoma tumor using a needle array of the method. The tumor was then excised and sectioned. […] Regions of doxorubicin fluorescence and cell death are localized to a zone within the tumor slice, reflecting spatially constrained doxorubicin delivery.

[2] = test system: mouse tumor; assay: Mouse tumor injected with doxorubicin and control; fluorescent imaging of the apoptosis signal; type: in vivo; conditions: FIG. 14; excitation 640 nm, emission 720 nm of the dye; versus control injection
Description: FIG. 14 depicts the use of various indicator dyes according to the method, to monitor spatially restricted delivery of compounds and resulting localized effects on regions of a tumor. A mouse tumor was injected with 1. doxorubicin; and 2. a control. Panel A illustrates excitation at 640 nm and emission at 800 nm of the dye. Panel B illustrates the doxorubicin signal (3.) observed after excitation at 500 nm and emission at 600 nm of doxorubicin. Panel C illustrates an apoptosis signal (4.) observed after excitation at 640 nm and emission at 720 nm of the dye.

[3] = test system: Intracranial medulloblastoma model (conditional Patchedl null) mice; assay: Survival of intracranial medulloblastoma model mice; type: in vivo, mouse; conditions: FIG. 13; 20 mg/kg daily; monitored for 50 days; versus vehicle only
Description: The results of the in vivo experiment depicted in FIG. 12 predicted that Shh antagonists would have a positive effect on a mouse model of cancer. Intracranial medulloblastoma model (conditional Patchedl null) mice used in this experiment develop medulloblastoma with an early onset and 100% penetrance. Accordingly, mice were injected daily with 20 mg/kg of either A) vehicle plus IPI-926 (n=12); or B) vehicle only (n=11). The mice were monitored for 50 days for survival, and the results depicted in FIG. 13.

Row | Structure (SMILES) | cell death in tumor slice, relative to doxorubicin fluorescence ([1]; FIG. 8, one tumor slice, needle array delivery) | cell death across tumor depths ([1]; FIG. 9, three cross-sectional slices from different depths) | apoptosis signal [2] | survival [3]
1 | COc1cccc2c1C(=O)c1c(O)c3c(c(O)c1C2=O)C[C@@](O)(C(=O)CO)C[C@@H]3O[C@H]1C[C@H](N)[C@H](O)[C@H](C)O1 [Doxorubicin] | doxorubicin fluorescence overlaps with the region of dead cells | Cell death was observed in a localized area across the three tumor depths | apoptosis overlaps with the region that received doxorubicin | –
2 | CC1=C2C[C@H]3[C@@H](CC[C@@H]4C[C@H](NS(C)(=O)=O)CC[C@@]43C)[C@@H]2CC[C@@]2(C1)O[C@@H]1C[C@H](C)CN[C@H]1[C@H]2C [IPI-926] | – | – | – | significantly increased survival
